Data as given in US20230069886A1, “AROMATIC SULPHONAMIDES DERIVATIVES THAT INHIBITS PDI A3, THEIR SYNTHESIS AND USE” (Uniwersytet Jagiellonski, priority 2020, published 2023).
In brackets after ≈: the same amount, converted by molar mass. Like-named read-outs stand apart in the source and are kept apart here.

What was measured:
HT-29 [1] = assay: Sulforhodamine B antiproliferative assay, 72 h, HT-29; format: cell-based, human; settings: normal (21% of oxygen), 72 hours exposition
Experimental: (§1) Anticancer activity of selected compounds of invention, PDI A3-inhibitors has been also tested in vitro in antiproliferative assay in normoxic and hypoxic conditions as well in estrogen-stimulated cancer cells. In the experiment, cells were seeded on 96-well plates (Sarstedt, Germany) in appropriate culture medium at a density of 10^5 cells/mL 24 h before adding the tested compounds. Cells were treated with each compound in four concentrations in the range 0.1-100 μg/mL. […] After 72 h of compound treatment at 37° C., 5% CO2 humid atmosphere and in wo different oxygen level conditions: 21%—normal and <1%—hypoxia. In some experiments the MDA-MB-231 and MCF-7 cells were seeded with or without 200 nM estradiol and after 24 h the tested compounds were added. A previously described sulforhodamine B antiproliferative assay was used with minor modifications (Skehan P et al., 1990). Briefly, cells were fixed with 50 μL/well of 50% (w/v) trichloroacetic acid (Avantor Performance Materials, Gliwice, Poland). After 1 h incubation, plates were washed several times with tap water and 50 μL of 0.4% (w/v) solution of sulforhodamine B (Sigma-Aldrich, Germany) in 1% (v/v) acetic acid (Avantor Performance Materials, Gliwice, Poland) was added to each well. After 30 min incubation at room temperature, unbound dye was washed out with 1% (v/v) acetic acid, whereas bound dye was solubilized with 10 mM unbuffered TRIS (Avantor Performance Materials, Gliwice, Poland) solution. The entire procedure was performed using a BioTek EL-406 washing station (BioTek Instruments, USA). After additional 30 min, absorbance was read using a Biotek Hybrid H4 reader (BioTek Instruments, USA) at 540 nm wavelength. MTT assay was used alternatively for HL-60 cell line and in the experiment in which estrogens are added (specified in the table legend). Absorbance was measured using a Biotek Hybrid H4 reader at 570 nm wavelength for MTT assay.
(§2) Compounds at each concentration were tested in triplicate in a single experiment and each experiment was repeated at least three times independently. Results are presented as mean IC50±SD.

CaCo-2 = assay: Sulforhodamine B antiproliferative assay, 72 h, Caco-2; format: cell-based, human; settings: normal (21% of oxygen), 72 hours exposition
Experimental: In the experiment, cells were seeded on 96-well plates (Sarstedt, Germany) in appropriate culture medium at a density of 10^5 cells/mL 24 h before adding the tested compounds. Cells were treated with each compound in four concentrations in the range 0.1-100 μg/mL. […] Briefly, cells were fixed with 50 μL/well of 50% (w/v) trichloroacetic acid (Avantor Performance Materials, Gliwice, Poland). After 1 h incubation, plates were washed several times with tap water and 50 μL of 0.4% (w/v) solution of sulforhodamine B (Sigma-Aldrich, Germany) in 1% (v/v) acetic acid (Avantor Performance Materials, Gliwice, Poland) was added to each well. After 30 min incubation at room temperature, unbound dye was washed out with 1% (v/v) acetic acid, whereas bound dye was solubilized with 10 mM unbuffered TRIS (Avantor Performance Materials, Gliwice, Poland) solution. […] After additional 30 min, absorbance was read using a Biotek Hybrid H4 reader (BioTek Instruments, USA) at 540 nm wavelength.

MCF-7 [2] = assay: Sulforhodamine B antiproliferative assay, 72 h, normal/hypoxia, MCF-7; format: cell-based, human; settings: 72 hours exposition; for IC50 [μg/ml] MCF-7 hypoxia: hypoxia (<1% of oxygen); for IC50 [μg/ml] MCF-7 normal: normal (21% of oxygen)
Experimental: as §1, §2

MDA-MB-231 [3] = assay: Sulforhodamine B antiproliferative assay, 72 h, normal/hypoxia, MDA-MB-231; format: cell-based, human; settings: 72 hours exposition; for IC50 [μg/ml] MDA-MB-231 hypoxia: hypoxia (<1% of oxygen); for IC50 [μg/ml] MDA-MB-231 normal: normal (21% of oxygen)
Experimental: as §1, §2

MDA-MB-231 [4] = assay: MTT antiproliferative assay, 48 h, MDA-MB-231; format: cell-based, human; settings: Homo sapiens, MDA-MB-231, 48-hour exposition, read-out: Cytotoxicity, IC50, μM MDA-MB-231
Experimental: Anticancer activity of compounds of invention, PDI A3-inhibitors has been tested in vitro in classical antiproliferative assay in various cancer cells lines. Monolayer tumor cell lines MDA-MB-231 (human mammary breast adenocarcinoma), MCF-7 (human breast adenocarcinoma, estrogen-positive), HT-1080 (human fibrosarcoma) and Caco-2 (human colon adenocarcinoma) were cultured in standard medium DMEM (Dulbecco's modified Eagle's medium) (“Sigma”) supplemented with 10% foetal bovine serum (“Sigma”). About 2000-4000 cells per well (depending on line nature) were placed in 96-well plates and after 24 h compounds were added to the wells. Untreated cells were used as a control. The plates were incubated for 48 h, 37° C., 5% CO2. The number of surviving cells was determined using 3-(4,5-dimethylthiazol-2-yl)-2,5-diphenyltetrazolinium bromide (MTT). MTT-test: after incubating culture medium was removed and 200 μL fresh medium with 20 μL MTT (2 mg/mL in HBSS) was added in each well of the plate. After incubation (3 hr., 37° C., 5% CO2), the medium with MTT was removed and 200 μL DMSO were added at once to each sample. The samples were tested at 540 nm on Thermo Scientific Multiskan EX microplate photometer. The half-maximal inhibitory concentration (IC50) of each compound was calculated using Graph Pad Prism® 3.0.

HL-60 = assay: MTT antiproliferative assay, 72 h, HL-60; format: cell-based, human; settings: Homo sapiens, HL-60, 72 hours exposition, read-out: IC50 [μg/ml] HL-60 normal
Experimental: as §1, §2

MCF-10A = assay: Selectivity index MCF-10A versus MCF-7; format: cell-based; settings: 72 hours exposition
Experimental: as §1
Compounds at each concentration were tested in triplicate in a single experiment and each experiment was repeated at least three times independently. […]

MDA-MB-231 [5] = assay: MTT antiproliferative assay, 72 h, with or without estradiol, MDA-MB-231; format: cell-based, human; settings: Homo sapiens, MDA-MB-231, 72 hours exposition, MTT
Experimental: as §1, §2

HT-29 [6] = assay: MTT antiproliferative assay, 72 h, HT-29; format: cell-based, human; settings: Homo sapiens, HT-29, 72 hours exposition, read-out: IC50 [μg/ml] HT-29 normal
Experimental: as §1, with “A previously described sulforhodamine B antiproliferative assay was used with minor modifications (Skehan P et al., 1990).” left out, “MTT assay was used alternatively for HL-60 cell line and in the experiment in which estrogens are added (specified in the table legend).” left out
as §2

MCF-7 [7] = assay: MTT antiproliferative assay, 72 h, with or without estradiol, MCF-7; format: cell-based, human; settings: Homo sapiens, MCF7, 72 hours exposition, MTT
Experimental: as §1, §2

| Structure (SMILES) | IC50 [μg/ml] HT-29 normal (HT-29 [1]) [µg/mL] | IC50 [μg/ml] Caco-2 normal (CaCo-2) [µg/mL] | IC50 [μg/ml] MCF-7 hypoxia (MCF-7 [2]) [µg/mL] | IC50 [μg/ml] MCF-7 normal (MCF-7 [2]) [µg/mL] | IC50 [μg/ml] MDA-MB-231 hypoxia (MDA-MB-231 [3]) [µg/mL] | IC50 [μg/ml] MDA-MB-231 normal (MDA-MB-231 [3]) [µg/mL] | IC50 (MDA-MB-231 [4]) [µM] | IC50 (HL-60) [µg/mL] | Selectivity index (SI): IC50 of MCF-10A/IC50 of MCF-7 (MCF-10A) | IC50 (MDA-MB-231 [5]; not pretreated with estradiol, read-out: IC50 [μg/ml] MDA-MB-231 normal) [µg/mL] | IC50 (MDA-MB-231 [5]; pretreated with 200 nM estradiol, read-out: IC50 [μg/ml] MDA-MB-231 +estradiol) [µg/mL] | IC50 (HT-29 [6]) [µg/mL] | IC50 (MCF-7 [7]; not pretreated with estradiol, read-out: IC50 [μg/ml] MCF-7 normal) [µg/mL] | IC50 (MCF-7 [7]; pretreated with 200 nM estradiol, read-out: IC50 [μg/ml] MCF-7 +estradiol) [µg/mL] |
| --- | --- | --- | --- | --- | --- | --- | --- | --- | --- | --- | --- | --- | --- | --- |
| O=C(C1CC1)N1CCN(Cn2sc3ccccc3c2=O)CC1 [LOC14] | 12.6 ± 8.4 (≈ 39.7 µM) | 9.1 ± 3.4 (≈ 28.7 µM) | 3.9 ± 0.3 (≈ 12.3 µM) | 4.4 ± 0.9 (≈ 13.9 µM) | 2.6 ± 0.5 (≈ 8.19 µM) | 2.8 ± 0.4 (≈ 8.82 µM) | – | – | – | – | – | – | – | – |
| COC(=O)C1CN1S(=O)(=O)c1ccccc1C (stereo not shown) [Compound C-3320, Methyl 1-(o-tolylsulfonyl)aziridine-2-carboxylate] | – | – | – | – | – | – | 380 ± 15 | – | – | – | – | – | – | – |
| COc1ccc(N2C(=O)/C(=C\c3ccc([N+](=O)[O-])s3)SC2=S)cc1 [CCF642] | 0.4 ± 0.05 (≈ 1.06 µM) | 0.4 ± 0.1 (≈ 1.06 µM) | 0.6 ± 0.6 (≈ 1.59 µM) | 0.7 ± 0.5 (≈ 1.85 µM) | 0.3 ± 0.2 (≈ 0.793 µM) | 0.3 ± 0.1 (≈ 0.793 µM) | – | – | – | – | – | – | – | – |
| CN(C)C(=O)C1CN1S(=O)(=O)c1ccc2ccccc2c1 (stereo not shown) [Compound C-3373, N,N-Dimethyl-1-(2-naphthylsulfonyl)aziridine-2-carboxamide] | – | – | – | – | – | – | – | 3.1 ± 0.1 (≈ 10.2 µM) | 1.20 | 3.2 ± 0.1 (≈ 10.5 µM) | 3.2 ± 0.3 (≈ 10.5 µM) | 33.4 ± 1.1 (≈ 110 µM) | 3.3 ± 0.1 (≈ 10.8 µM) | 2.6 ± 0.5 (≈ 8.54 µM) |
| N.N.[Cl][Pt][Cl] [Cisplatin] | 2.82 ± 0.6 | – | 1.3 ± 0.5 | 1.8 ± 0.3 | 3.1 ± 0.9 | 3.2 ± 0.5 | – | – | – | – | – | – | – | – |
